According to article PMC9448386, “Discovery of novel conjugates of quinoline and thiazolidinone urea as potential anti-colorectal cancer agent” (Journal of Enzyme Inhibition and Medicinal Chemistry, 2022):

How the values were obtained:
COLO 205 cells [1] = assay: Cell cycle arrest assay by flow cytometry; assay type: cell-based; settings: COLO 205, 0.33 μM and 0.11 μM, 24 h
Experimental: The antiproliferative activity of compound 10a was evaluated by flowcytometry analysis of COLO 205 cells. COLO 205 cells were treated with different concentrations (1.0 μM, 0.33 μM and 0.11 μM) of compound 10a for 24 h. […] At the concentration of 1.0 μM, cell cycle arrest could not be determined due to the massive dead cells (data not shown).
COLO 205 cells (2.5 × 10^5) were seeded in two 12-well plates and treated with DMSO and compound 10a (0.11 μM, 0.33 μM and 1.0 μM) for 24 h (37 °C, 5% CO2). Cells were collected, centrifuged at 1000 rpm for 5 min, washed with cold PBS for twice, and then fixed with 500 μL 75% cold ethanol at 4 °C. The cells were washed with cold PBS and stained with propidium iodide for 30 min in the dark. Cell-cycle analyses were conducted with Cytoflex S (Beckman Coulter).

COLO 205 cells [2] = assay: Annexin V-FITC/PI apoptosis assay by flow cytometry; assay type: cell-based; settings: 72 h; for total apoptosis (early apoptosis and advanced apoptosis): mean of three independent determinations
Experimental: Quantitative analysis of early-apoptotic cells, advanced-apoptotic cells and necrotic cells was determined. COLO 205 cells were stimulated with different concentrations of compound 10a for 72 h. […] The total apoptosis including early apoptosis and advanced apoptosis accounted for 58.8%, 29.3% and 21.0% (the mean value of three independent determinations) when COLO 205 cells were treated with compound 10a at the concentration of 1.0 μM, 0.33 μM and 0.11 μM, respectively.
COLO 205 cells (2.5 × 10^5) were seeded in two 12-well plates and treated with DMSO and compound 10a (0.11 μM, 0.33 μM and 1.0 μM) for 72 h (37 °C, 5% CO2). The cells were collected, centrifuged at 1000 rpm for 5 min, and then washed with cold PBS for twice. Apoptosis assays were conducted with CytoFLEX S (Beckman Coulter).

## COc1cc2c(Oc3ccc(NC(=O)NN4C(=O)CSC4c4c(F)cccc4F)cc3F)ccnc2cc1OC1CCN(CC(N)=O)CC1 (centres unmarked) [Compound 10a, 2–(4-((4–(4-(3–(2-(2,6-Difluorophenyl)-4-oxothiazolidin-3-yl)ureido)-2-fluorophenoxy)-6-methoxyquinolin-7-yl)oxy)piperidin-1-yl)acetamide]
COLO 205 cells [1]
  cell cycle arrest: could not arrest the cell-cycle progression
COLO 205 cells [2]; COLO 205, 0.11 μM
  total apoptosis (early apoptosis and advanced apoptosis): 21.0%
COLO 205 cells [2]; COLO 205, 0.33 μM
  total apoptosis (early apoptosis and advanced apoptosis): 29.3%
COLO 205 cells [2]; COLO 205, 1.0 μM
  total apoptosis (early apoptosis and advanced apoptosis): 58.8%
COLO 205 cells [2]; COLO 205, 0.11–1.0 μM
  induction of apoptosis: could effectively induce COLO 205 cells apoptosis in a dose-dependent manner
